Measured values as given in patent US9445594B2, “Molecules having certain pesticidal utilities, intermediates, compositions, and processes, related thereto” (priority 2014, dated 2016).

Assays:
Format in all cases: in vivo
[1] = system: Beet Armyworm (Spodoptera exigua, LAPHEG) ("BAW"); assay: Bioassays on BAW, 128-well diet tray assay; conditions: 168 h, second instar larvae, 50 μg/cm^2 on artificial diet, 25° C., five to seven days, average of eight wells, read-out: BAW % Control (or Mortality) rating
Method in brief: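 One to five second-instar larvae were placed per well on artificial diet surface-treated with 50 μg/cm^2 compound from 90:10 acetone-water, dried before infestation. Trays were held at 25 °C, 14:10 light-dark, for five to seven days. Percent mortality was averaged over eight wells.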

[2] = system: Green Peach Aphid (Myzus persicae, MYZUPE) ("GPA"); assay: Bioassays on GPA, foliar spray of infested cabbage seedlings; conditions: 72 h, 200 ppm spray on cabbage seedlings, graded after three days, Abbott corrected % control, read-out: GPA % Control (or Mortality) rating
Procedure: Certain molecules disclosed in this document were tested against GPA using procedures described in the following example. In the reporting of the results, the “GPA Rating Table” was used (See Table Section).
Cabbage seedlings grown in 3-inch pots, with 2-3 small (3-5 cm) true leaves, were used as test substrate. The seedlings were infested with 20-50 GPA (wingless adult and nymph stages) one day prior to chemical application. Four pots with individual seedlings were used for each treatment. Test compounds (2 mg) were dissolved in 2 mL of acetone/methanol (1:1) solvent, forming stock solutions of 1000 ppm test compound. The stock solutions were diluted 5× with 0.025% Tween 20 in water to obtain the solution at 200 ppm test compound. A hand-held aspirator-type sprayer was used for spraying a solution to both sides of […] leaves until runoff. Reference plants (solvent check) were sprayed with the diluent only containing 20% by volume of acetone/methanol (1:1) solvent. Treated plants were held in a holding room for three days at approximately 25° C. and ambient relative humidity (RH) prior to grading. Evaluation was conducted by counting the number of live aphids per plant under a microscope. Percent Control was measured by using Abbott's correction formula (W. S. Abbott, “A Method of Computing the Effectiveness of an Insecticide” J. Econ. Entomol. 18 (1925), pp. 265-267) as follows. Corrected % Control=100*(X−Y)/X • where • X=No. of live aphids on solvent check plants and • Y=No. of live aphids on treated plants

[3] = system: Cabbage Looper (Trichoplusia ni, TRIPNI) ("CL"); assay: Bioassays on CL, 128-well diet tray assay; conditions: 168 h, second instar larvae, 50 μg/cm^2 on artificial diet, 25° C., five to seven days, average of eight wells, read-out: CL % Control (or Mortality) rating
Method in brief: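 Second-instar larvae (one to five per well) on artificial diet surface-treated with 50 μg/cm^2 compound in 90:10 acetone-water, eight wells per treatment. Held at 25° C., 14:10 light-dark for five to seven days. Percent mortality scored per well and averaged over the eight wells.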

[4] = system: Yellow Fever Mosquito (Aedes aegypti, AEDSAE) ("YFM"); assay: Bioassays on YFM, 96-well plate larval assay; conditions: about 1 day-old larvae, from 4000 ppm DMSO master plate diluted, room temperature, scored after 3 days
Method in brief: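 Compounds from 4000 ppm DMSO master plates, diluted in 90:10 water:acetone, dispensed into 96-well plates, six replicates. About 1-day-old larvae added in liver-powder water. Wells covered, held 3 days at room temperature, then scored for mortality.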

SMILES	mortality at 50 µg/cm2 [1] [%]	mortality at 200 ppm [2] [%]	mortality at 50 µg/cm2 [3] [%]	YFM % Control (or Mortality) rating [4]
CSc1ccccc1-c1ccccc1NC(=O)Nc1ccc(-c2ncn(-c3ccc(OC(F)(F)F)cc3)n2)cc1 [F60, 1-(2′-(Methylthio)-[1,1′-biphenyl]-2-yl)-3-(4-(1-(4-(trifluoromethoxy)phenyl)-1H-1,2,4-triazol-3-yl)phenyl)urea]	50 to 100	0 to 80	50 to 100	A (80-100)
C#Cc1ccccc1NC(=O)Nc1ccc(-c2ncn(-c3ccc(OC(F)(F)F)cc3)n2)cc1 [F5, 1-(2-Ethynylphenyl)-3-(4-(1-(4-(trifluoromethoxy)phenyl)-1H-1,2,4-triazol-3-yl)phenyl)urea]	50 to 100	0	50 to 100	D (No activity noticed in this bioassay)
CC(C)(C)c1ccccc1NC(=O)Nc1ccc(-c2ncn(-c3ccc(OC(F)(F)F)cc3)n2)cc1 [F38, 1-(2-(Tert-butyl)phenyl)-3-(4-(1-(4-(trifluoromethoxy)phenyl)-1H-1,2,4-triazol-3-yl)phenyl)urea]	0 to 50	0	50 to 100	D (No activity noticed in this bioassay)
CSc1ccccc1-c1cccnc1NC(=S)Nc1ccc(-c2ncn(-c3ccc(OC(F)(F)F)cc3)n2)cc1 [F22, 1-(3-(2-(Methylthio)phenyl)pyridin-2-yl)-3-(4-(1-(4-(trifluoromethoxy)phenyl)-1H-1,2,4-triazol-3-yl)phenyl)thiourea]	0 to 50	0 to 80	50 to 100	D (No activity noticed in this bioassay)
CC(C)CC(C)c1ccccc1NC(=O)Nc1ccc(-c2ncn(-c3ccc(OC(F)(F)F)cc3)n2)cc1 (centres unmarked) [F18, 1-(2-(4-methylpentan-2-yl)phenyl)-3-(4-(1-(4-(trifluoromethoxy)phenyl)-1H-1,2,4-triazol-3-yl)phenyl)urea]	50 to 100	0	50 to 100	D (No activity noticed in this bioassay)
Cc1ccc(C(C)C)c(NC(=O)NCCCc2ccc(-c3ncn(-c4ccc(OC(F)(F)F)cc4)n3)cc2)c1 [P6, 1-(2-Isopropyl-5-methylphenyl)-3-(3-(4-(1-(4-(trifluoromethoxy)phenyl)-1H-1,2,4-triazol-3-yl)phenyl)propyl)urea]	50 to 100	0	50 to 100	A (80-100)
CCc1ccccc1-c1ccccc1NC(=O)Nc1ccc(-c2ncn(-c3ccc(OC(F)(F)F)cc3)n2)cc1 [F35, 1-(2′-Ethyl-[1,1′-biphenyl]-2-yl)-3-(4-(1-(4-(trifluoromethoxy)phenyl)-1H-1,2,4-triazol-3-yl)phenyl)urea]	50 to 100	0	50 to 100	A (80-100)
Cc1ccccc1-c1cccc(NC(=O)NCCCc2ccc(-c3ncn(-c4ccc(OC(F)(F)F)cc4)n3)cc2)c1 [FA2, 1-(2′-Methyl-[1,1′-biphenyl]-3-yl)-3-(3-(4-(1-(4-(trifluoromethoxy)phenyl)-1H-1,2,4-triazol-3-yl)phenyl)propyl)urea]	0	0	0	D (No activity noticed in this bioassay)
Cc1cc(C)cc(NC(=O)NCCCc2ccc(-c3ncn(-c4ccc(OC(F)(F)F)cc4)n3)cc2)c1 [P1, 1-(3,5-Dimethylphenyl)-3-(3-(4-(1-(4-(trifluoromethoxy)phenyl)-1H-1,2,4-triazol-3-yl)phenyl)propyl)urea]	0	0	0	D (No activity noticed in this bioassay)
CCc1ccccc1-c1cccnc1NC(=S)Nc1ccc(-c2ncn(-c3ccc(OC(F)(F)F)cc3)n2)cc1 [F20, 1-(3-(2-Ethylphenyl)pyridin-2-yl)-3-(4-(1-(4-(trifluoromethoxy)phenyl)-1H-1,2,4-triazol-3-yl)phenyl)thiourea]	0 to 50	0 to 80	50 to 100	D (No activity noticed in this bioassay)
O=C(Nc1ccc(-c2ncn(-c3ccc(OC(F)(F)F)cc3)n2)cc1)Nc1ncccc1-c1cccnc1 [F66, 1-([3,3′-Bipyridin]-2-yl)-3-(4-(1-(4-(trifluoromethoxy)phenyl)-1H-1,2,4-triazol-3-yl)phenyl)urea]	50 to 100	0 to 80	50 to 100	D (No activity noticed in this bioassay)
O=C(NCCCc1ccc(-c2ncn(-c3ccc(OC(F)(F)F)cc3)n2)cc1)Nc1ccccc1-c1ccccc1 [P9, 1-([1,1′-Biphenyl]-2-yl)-3-(3-(4-(1-(4-(trifluoromethoxy)phenyl)-1H-1,2,4-triazol-3-yl)phenyl)propyl)urea]	0	0	50 to 100	B (More than 0 - Less than 80)
CC(C)c1ccccc1-c1ccccc1NC(=O)Nc1ccc(-c2ncn(-c3ccc(OC(F)(F)F)cc3)n2)cc1 [F63, 1-(2′-Isopropyl-[1,1′-biphenyl]-2-yl)-3-(4-(1-(4-(trifluoromethoxy)phenyl)-1H-1,2,4-triazol-3-yl)phenyl)urea]	50 to 100	0 to 80	50 to 100	D (No activity noticed in this bioassay)
CCc1ccccc1-c1ccccc1NC(=S)Nc1ccc(-c2ncn(-c3ccc(OC(F)(F)F)cc3)n2)cc1 [F4, 1-(2′-Ethyl-[1,1′-biphenyl]-2-yl)-3-(4-(1-(4-(trifluoromethoxy)phenyl)-1H-1,2,4-triazol-3-yl)phenyl)thiourea]	50 to 100	0	50 to 100	A (80-100)
Cc1ccccc1-c1cccnc1NC(=S)Nc1ccc(-c2ncn(-c3ccc(OC(F)(F)F)cc3)n2)cc1 [F11, 1-(3-(o-Tolyl)pyridin-2-yl)-3-(4-(1-(4-(trifluoromethoxy)phenyl)-1H-1,2,4-triazol-3-yl)phenyl)thiourea]	50 to 100	0 to 80		D (No activity noticed in this bioassay)
O=C(Nc1ccc(-c2ncn(-c3ccc(OC(F)(F)F)cc3)n2)cc1)Nc1ccccc1-c1ccccc1 [F31, 1-([1,1′-biphenyl]-2-yl)-3-(4-(1-(4-(trifluoromethoxy)phenyl)-1H-1,2,4-triazol-3-yl)phenyl)urea]	50 to 100	0 to 80	50 to 100	A (80-100)
COc1ccc(NC(=O)NCCCc2ccc(-c3ncn(-c4ccc(OC(F)(F)F)cc4)n3)cc2)c(C)c1 [P3, 1-(4-Methoxy-2-methylphenyl)-3-(3-(4-(1-(4-(trifluoromethoxy)phenyl)-1H-1,2,4-triazol-3-yl)phenyl)propyl)urea]	0	0	0	D (No activity noticed in this bioassay)
O=C(Nc1ccc(-c2ncn(-c3ccc(OC(F)(F)C(F)(F)F)cc3)n2)cc1)Nc1ccccc1-c1ccccc1 [F68, 1-([1,1′-biphenyl]-2-yl)-3-(4-(1-(4-(perfluoroethoxy)phenyl)-1H-1,2,4-triazol-3-yl)phenyl)urea]	50 to 100	0 to 80	50 to 100	A (80-100)
Fc1ccc(NC(=S)Nc2ccc(-c3ncn(-c4ccc(OC(F)(F)F)cc4)n3)cc2)cc1 [F72, 1-(4-Fluorophenyl)-3-(4-(1-(4-(trifluoromethoxy)phenyl)-1H-1,2,4-triazol-3-yl)phenyl)thiourea]	50 to 100	0		B (More than 0 - Less than 80)
